Experimental findings from ChEMBL document CHEMBL2157929, “Synthesis and structure-activity relationship of fused-pyrimidine derivatives as a series of novel GPR119 agonists” (Bioorg Med Chem, 2012) are described below.

The subject of data set [1] is Mus musculus. Nature of the data set: Antihyperglycemic activity in po dosed ICR mouse assessed as reduction of blood glucose level after 30 mins by oral glucose tolerance test. The data set is classed as functional. To be noted: 0.5 h, read-out: MED.
Data set [2] has as its target T1, Glucose-dependent insulinotropic receptor (Homo sapiens) (UniProt Q8TDV5).
T1 sequence (whole entry): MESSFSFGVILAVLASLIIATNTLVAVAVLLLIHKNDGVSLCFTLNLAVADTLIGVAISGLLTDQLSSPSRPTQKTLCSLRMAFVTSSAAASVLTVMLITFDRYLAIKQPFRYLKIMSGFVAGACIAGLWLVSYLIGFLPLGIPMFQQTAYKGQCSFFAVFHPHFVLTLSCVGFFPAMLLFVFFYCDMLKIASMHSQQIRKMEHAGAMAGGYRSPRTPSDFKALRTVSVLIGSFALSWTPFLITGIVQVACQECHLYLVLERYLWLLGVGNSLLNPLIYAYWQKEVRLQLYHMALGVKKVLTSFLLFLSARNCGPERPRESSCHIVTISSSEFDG
In words: Agonist activity at human recombinant GPR119 expressed in HEK293 cells co-expressing pCRE-Luc at 10 uM after 6 hrs by cAMP reporter assay relative to 2-(2-(4-bromophenyl)-6-methylpyrimidin-4-ylamino)ethanol. It is filed as functional, cell-based.

Data set [3] addresses T1, Glucose-dependent insulinotropic receptor (Homo sapiens). In words: Agonist activity at human recombinant GPR119 expressed in HEK293 cells co-expressing pCRE-Luc assessed as concentration required to showing equipotent efficacy to 2-(2-(4-bromophenyl)-6-methylpyrimidin-4-ylamino)ethanol after 6 hrs by cAMP reporter assay. It is filed as functional, cell-based.
Data set [4] deals with Mus musculus. In words: Antihyperglycemic activity in ICR mouse assessed as reduction of blood glucose level at 1 mg/kg, po after 30 mins by oral glucose tolerance test. Set-up: scale not given: the % may be the effect or the level left. It is filed as functional.
A short description of data set [5]: Solubility of compound at pH 6.8 after 20 hrs by precipitation method. It is filed as physicochemical. The conditions noted are these: buffer.
Data set [6] concerns Mus musculus. In words: Antihyperglycemic activity in ICR mouse assessed as reduction of blood glucose level at 3 mg/kg, po after 30 mins by oral glucose tolerance test. The data set is classed as functional. Set-up: scale not given: the % may be the effect or the level left.
Data set [7] relates to Mus musculus. In words: Antihyperglycemic activity in ICR mouse assessed as reduction of blood glucose level at 0.1 mg/kg, po after 30 mins by oral glucose tolerance test. The data set is classed as functional. Set-up: scale not given: the % may be the effect or the level left.
Data set [8] is described as follows: Inhibition of cytochrome P450 up to 50 uM. It is filed as ADME.
Data set [9] is described as follows: Clearance in human liver microsomes. The data set is classed as ADME, Microsome. To be noted: read-out: CLH.
Data set [10] deals with Mus musculus. Nature of the data set: Antihyperglycemic activity in ICR mouse assessed as reduction of blood glucose level at 0.3 mg/kg, po after 30 mins by oral glucose tolerance test. It is filed as functional. The arrangement: scale not given: the % may be the effect or the level left.

Values after ≈ are worked out from the molar mass of the structure shown.

Take `NC(=O)CN1CCN(c2nc(-c3cc(F)c(Cl)cc3F)nc3c2CS(=O)(=O)C3)CC1`: the minimal effective dose in the data set with Mus musculus [1] worked out at 3 mg/kg. The Intrinsic activity in [2] was determined as 737%. For the same compound, the EC in [3] stood at 44 nM. Moreover, the Activity with Mus musculus [4] stood at 17%. Besides, the solubility (kinetic) at 20 h in [5] is more than 100 µM.

Consider `CNC(=O)C1CCN(c2nc(-c3cc(F)c(Cl)cc3F)nc3c2CS(=O)(=O)C3)CC1`, for which the minimal effective dose in the data set with Mus musculus [1] worked out at 3 mg/kg. In addition, the Intrinsic activity in data set [2] amounted to 457%. The EC in [3] was determined as 51 nM. The same compound showed a solubility (kinetic) at 20 h in data set [5] of 11 µM (≈ 5.03 µg/mL).

Take `NC(=O)C1CCN(c2nc(-c3cc(F)c(Cl)cc3F)nc3c2CS(=O)(=O)C3)CC1`: the minimal effective dose in the data set with Mus musculus [1] came out at 3 mg/kg. Also, the Intrinsic activity in data set [2] worked out at 294%. Moreover, the EC in data set [3] was 21 nM. Also, in the data set with Mus musculus [4], the Activity is reported as 12%. Further, in data set [5], the solubility (kinetic) at 20 h was 40 µM (≈ 17.7 µg/mL).

On to `O=S1(=O)Cc2nc(-c3cc(F)c(Cl)cc3F)nc(N3CCC(CO)CC3)c2C1`, for which the minimal effective dose with Mus musculus [1] was 0.3 mg/kg. Moreover, the Intrinsic activity in data set [2] was determined as 501%. The EC in data set [3] came to 3.9 nM. The Activity in the data set with Mus musculus [4] is given as 29%. The compound also showed a kinetic solubility at 20 h in [5] of 16 µM (≈ 6.88 µg/mL).

With `Fc1cc(-c2nc3c(c(N4CCOCC4)n2)CCC3)c(F)cc1Cl`, the Intrinsic activity in [2] stood at 405%. Also, in data set [3], the EC turned out to be 350 nM.

As to `Fc1cc(-c2nc3c(c(N4CCOCC4)n2)CSC3)c(F)cc1Cl`, the Intrinsic activity in data set [2] came to 467%. Moreover, in data set [3], the EC is 150 nM.

Turning to `CN(C)C(=O)C1CCN(c2nc(-c3cc(F)c(Cl)cc3F)nc3c2CS(=O)(=O)C3)CC1`, in the data set on Mus musculus [1], the minimal effective dose was 1 mg/kg. For the same compound, the Intrinsic activity in data set [2] was 292%. Also, the EC in [3] was 350 nM. Further, in the data set with Mus musculus [4], the Activity is recorded as 32%. In [5], this compound showed a kinetic solubility at 20 h of more than 100 µM.

Consider `O=C(O)C1CCN(c2nc(-c3cc(F)c(Cl)cc3F)nc3c2CS(=O)(=O)C3)CC1`, for which the Activity with Mus musculus [6] is reported as 15%. Besides, in the data set on Mus musculus [1], the minimal effective dose was more than 3 mg/kg. The Intrinsic activity in [2] is 528%. Besides, the EC in data set [3] was determined as 560 nM.

Consider `NC(=O)CC1CCN(c2nc(-c3cc(F)c(Cl)cc3F)nc3c2CS(=O)(=O)C3)CC1`, for which the values for the Activity in the data set with Mus musculus [7] and in the data set with Mus musculus [4] were 27% and 35%, respectively. In addition, the minimal effective dose in the data set on Mus musculus [1] amounted to 0.1 mg/kg. Moreover, in data set [8], the “inhibition (INH)” value is on record as “Not Active”. For the same compound, in [2], the Intrinsic activity was found to be 483%. Also, in data set [3], the EC is 8.3 nM. Besides, in data set [9], the CLint scaled was 58 mL/min/kg. Also, the solubility (kinetic) at 20 h in data set [5] turned out to be 15 µM (≈ 6.85 µg/mL).

In the case of `Fc1cc(-c2nc3c(c(N4CCOCC4)n2)CCCC3)c(F)cc1Cl`, the Intrinsic activity in data set [2] came out at 313%. Besides, the EC in data set [3] worked out at 770 nM.

`O=S1(=O)Cc2nc(-c3cc(F)c(Cl)cc3F)nc(N3CCC(CCO)CC3)c2C1`: the minimal effective dose in the data set on Mus musculus [1] came to 1 mg/kg. In data set [2], the Intrinsic activity is 506%. For the same compound, the EC in data set [3] came to 2.8 nM. Moreover, the Activity in the data set with Mus musculus [4] is listed as 29%. Besides, the kinetic solubility at 20 h in data set [5] is 23 µM (≈ 10.2 µg/mL).

Regarding `Fc1cc(-c2nc3c(c(N4CCOCC4)n2)SCC3)c(F)cc1Cl`, the Intrinsic activity in [2] stood at 426%. Besides, in [3], the EC is 57 nM.

Take `O=S1(=O)Cc2nc(-c3cc(F)c(Cl)cc3F)nc(N3CCC(O)CC3)c2C1`: the minimal effective dose in the data set on Mus musculus [1] worked out at 1 mg/kg. Further, the Intrinsic activity in data set [2] was determined as 575%. Further, the EC in [3] was found to be 14 nM. Besides, the Activity with Mus musculus [4] was determined as 32%. Further, the solubility (kinetic) at 20 h in data set [5] amounted to 91 µM (≈ 37.8 µg/mL).

In the case of `O=S1(=O)Cc2nc(-c3cc(F)c(Cl)cc3F)nc(N3CCOCC3)c2C1`, the minimal effective dose with Mus musculus [1] came out at 1 mg/kg. The Intrinsic activity in data set [2] worked out at 668%. Also, the EC in data set [3] is 28 nM. Moreover, the Activity in the data set with Mus musculus [4] is given as 30%. Further, the kinetic solubility at 20 h in data set [5] is less than 1 µM.

Regarding `NC(=O)CCC1CCN(c2nc(-c3cc(F)c(Cl)cc3F)nc3c2CS(=O)(=O)C3)CC1`, the minimal effective dose with Mus musculus [1] was 0.3 mg/kg. Further, the Intrinsic activity in data set [2] is 627%. In addition, the EC in data set [3] was found to be 18 nM. Also, the Activity in the data set with Mus musculus [10] was 30%. Besides, the solubility (kinetic) at 20 h in [5] turned out to be 8 µM (≈ 3.77 µg/mL).

Take `Fc1cc(-c2nc3c(c(N4CCOCC4)n2)CCS3)c(F)cc1Cl`: the Intrinsic activity in data set [2] was 258%. Besides, the EC in data set [3] came out at 970 nM.

Take `Fc1cc(-c2nc3c(c(N4CCOCC4)n2)COC3)c(F)cc1Cl`: the Intrinsic activity in data set [2] came out at 205%. Moreover, in data set [3], the EC came out at 4100 nM.

The term kinetic solubility denotes the concentration staying in solution when a stock, usually in DMSO, is diluted into the medium.
